Holding throughout (type): functional, cell-based
The subject of one assay is MCF7. Nature of the assay: Antiproliferative activity against human MCF7 cells assessed as reduction in cell viability incubated for 48 hrs by MTS assay. Conditions: MCF7, 48 h. A general note: Tetrazolium assays rely on reduction of a dye to a coloured formazan, in cell work by metabolically active cells.
A further assay has as its system SW480. As to the kind of experiment: Antiproliferative activity against human SW480 cells assessed as reduction in cell viability incubated for 48 hrs by MTS assay. Conditions: SW480, 48 h.
In the next assay the test system is A549. Nature of the assay: Antiproliferative activity against human A549 cells assessed as reduction in cell viability incubated for 48 hrs by MTS assay. Conditions: A549, 48 h.
Another assay relates to SMMC-7721. As to the kind of experiment: Antiproliferative activity against human SMMC7721 cells assessed as reduction in cell viability incubated for 48 hrs by MTS assay. Conditions: SMMC-7721, 48 h.
A further assay concerns HL-60. Nature of the assay: Antiproliferative activity against human HL60 cells assessed as reduction in cell viability incubated for 48 hrs by MTS assay. Conditions: HL-60, 48 h.

The term IC50 denotes the concentration that gives 50% inhibition. For the molecule `CC(C)CCC[C@@H](C)[C@H]1CC[C@H]2[C@@H]3CC=C4C[C@H](n5c[n+](CC(=O)c6ccccc6)c6ccccc65)CC[C@]4(C)[C@H]3CC[C@]12C`, the IC50 in the assay on MCF7 came to 7.18 µM; in the assay on SW480 it was 10.2 µM; in the assay on A549, 7.51 µM; in the assay with SMMC-7721, 1.65 µM; with HL-60, 0.88 µM.
The corresponding values for `Cc1cc2c(cc1C)[n+](Cc1ccccc1Br)cn2[C@@H]1CC[C@@]2(C)C(=CC[C@H]3[C@@H]4CC[C@H]([C@H](C)CCCC(C)C)[C@@]4(C)CC[C@@H]32)C1` are 14.2 µM, 13.2 µM, 8.44 µM, 1.81 µM and 6.96 µM.
Consider `C[C@@H]1CC[C@@]2(OC1)O[C@H]1C[C@H]3[C@@H]4CC=C5C[C@@H](O)CC[C@]5(C)[C@H]4CC[C@]3(C)[C@H]1[C@@H]2C` [DISOGENIN], for which the IC50 in the assay with MCF7, in the assay with SW480, in the assay on A549, in the assay on SMMC-7721 and with HL-60 was greater than 20 µM throughout.
`CC(C)CCC[C@@H](C)[C@H]1CC[C@H]2[C@@H]3CC=C4C[C@H](n5cc[n+](CC(=O)c6ccccc6)c5)CC[C@]4(C)[C@H]3CC[C@]12C`: the IC50 was determined as 8.41 µM in the assay on MCF7; 9.03 µM in the assay with SW480; 8.42 µM with A549; 1.49 µM with SMMC-7721; 6.85 µM in the assay with HL-60.
For `C[C@@H]1CC[C@@]2(OC1)O[C@H]1C[C@H]3[C@@H]4CC=C5C[C@@H](n6cc[n+](CC(=O)c7ccc8ccccc8c7)c6)CC[C@]5(C)[C@H]4CC[C@]3(C)[C@H]1[C@@H]2C`, in that order: 5.83 µM, 6.55 µM, 3.49 µM, 5.49 µM and 1.37 µM.
Consider `CC(=O)O[C@H]1CC[C@@]2(C)C(=CC[C@H]3[C@@H]4CC[C@H](n5cc[n+](CC(=O)c6ccccc6)c5)[C@@]4(C)CC[C@@H]32)C1`, for which the IC50 in the assay on MCF7 is 9.07 µM; in the assay on SW480 it was 11.1 µM; in the assay with A549, greater than 20 µM; in the assay on SMMC-7721, 12 µM; in the assay with HL-60 it was 6.42 µM.
Turning to `CC(C)CCC[C@@H](C)[C@H]1CC[C@H]2[C@@H]3CC=C4C[C@H](n5cc[n+](Cc6ccccc6Br)c5)CC[C@]4(C)[C@H]3CC[C@]12C`, the half-inhibitory concentration (IC50) in the assay on MCF7 amounted to 6.02 µM; in the assay on SW480, 8.32 µM; in the assay with A549, 7.36 µM; in the assay on SMMC-7721, 0.94 µM; in the assay with HL-60 it was 1.59 µM.
Consider `Cc1cc2ncn([C@@H]3CC[C@@]4(C)C(=CC[C@H]5[C@@H]6C[C@@H]7O[C@]8(CC[C@@H](C)CO8)[C@@H](C)[C@@H]7[C@@]6(C)CC[C@@H]54)C3)c2cc1C`, for which the IC50 in the assay with MCF7, with SW480, with A549, with SMMC-7721 and in the assay on HL-60 was greater than 20 µM each time.
For the molecule `CC(C)CCC[C@@H](C)[C@H]1CC[C@H]2[C@@H]3CC=C4C[C@H](n5ccnc5)CC[C@]4(C)[C@H]3CC[C@]12C`, the IC50 in the assay with MCF7, with SW480, in the assay on A549, in the assay on SMMC-7721 and in the assay with HL-60 was greater than 20 µM in each case.
Take `CC(=O)O[C@H]1CC[C@@]2(C)C(=CC[C@H]3[C@@H]4CC[C@H](n5cc[n+](Cc6ccccc6Br)c5)[C@@]4(C)CC[C@@H]32)C1`: the IC50 was found to be 4.84 µM with MCF7; 6.87 µM with SW480; 6.52 µM with A549; 3.83 µM in the assay on SMMC-7721; 1.48 µM in the assay with HL-60.
On to `Cc1cc2c(cc1C)[n+](CC(=O)c1cccc(Br)c1)cn2[C@@H]1CC[C@@]2(C)C(=CC[C@H]3[C@@H]4C[C@@H]5O[C@]6(CC[C@@H](C)CO6)[C@@H](C)[C@@H]5[C@@]4(C)CC[C@@H]32)C1`, for which the IC50 with MCF7 was 2.78 µM; with SW480, 2.22 µM; in the assay on A549, 7.15 µM; with SMMC-7721 it was 1.39 µM; with HL-60 it was 0.98 µM.
`COc1ccc(C(=O)C[n+]2ccn([C@H]3CC[C@@]4(C)C(=CC[C@H]5[C@@H]6CC[C@H]([C@H](C)CCCC(C)C)[C@@]6(C)CC[C@@H]54)C3)c2)cc1`: the IC50 with MCF7 turned out to be 8.71 µM; with SW480, 10.7 µM; in the assay on A549, 8.75 µM; with SMMC-7721, 1.52 µM; in the assay on HL-60, 7.97 µM.
For `C[C@@H]1CC[C@@]2(OC1)O[C@H]1C[C@H]3[C@@H]4CC=C5C[C@@H](n6ccnc6)CC[C@]5(C)[C@H]4CC[C@]3(C)[C@H]1[C@@H]2C`, in that order: 14.5 µM, greater than 20 µM, 9.92 µM, 9.74 µM and 9.51 µM.
Regarding `COc1ccc(C(=O)C[n+]2cn([C@@H]3CC[C@@]4(C)C(=CC[C@H]5[C@@H]6C[C@@H]7O[C@]8(CC[C@@H](C)CO8)[C@@H](C)[C@@H]7[C@@]6(C)CC[C@@H]54)C3)c3cc(C)c(C)cc32)cc1`, the IC50 worked out at 2.31 µM with MCF7; 2.01 µM in the assay with SW480; 5.02 µM with A549; 0.44 µM with SMMC-7721; 0.74 µM with HL-60.
For `CC(C)CCC[C@@H](C)[C@H]1CC[C@H]2[C@@H]3C[C@H](n4cc[n+](Cc5ccc6ccccc6c5)c4)[C@]45C[C@H]4CC[C@]5(C)[C@H]3CC[C@]12C`, in that order: 8.04 µM, 7.48 µM, 7.67 µM, 1.04 µM and 1.64 µM.
For `CC(C)CCC[C@@H](C)[C@H]1CC[C@H]2[C@@H]3CC=C4C[C@@H](n5ccnc5)CC[C@]4(C)[C@H]3CC[C@]12C`, in that order: greater than 20 µM, greater than 20 µM, greater than 20 µM, greater than 20 µM and greater than 20 µM.
The corresponding values for `C[C@@H]1CC[C@@]2(OC1)O[C@H]1C[C@H]3[C@@H]4C[C@H](n5cc[n+](CC(=O)c6ccc7ccccc7c6)c5)[C@]56C[C@H]5CC[C@]6(C)[C@H]4CC[C@]3(C)[C@H]1[C@@H]2C` are 2.26 µM, 4.01 µM, 7.27 µM, 3.46 µM and 1.03 µM.
Regarding `C[C@@H]1CC[C@@]2(OC1)O[C@H]1C[C@H]3[C@@H]4CC=C5C[C@@H](n6cc[n+](CC(=O)c7ccccc7)c6)CC[C@]5(C)[C@H]4CC[C@]3(C)[C@H]1[C@@H]2C`, the IC50 turned out to be 5.66 µM in the assay with MCF7; 7.96 µM in the assay with SW480; 1.86 µM in the assay on A549; 2.14 µM with SMMC-7721; 1.18 µM in the assay with HL-60.
Regarding `CC(=O)O[C@H]1CC[C@@]2(C)C(=CC[C@H]3[C@@H]4CC[C@H](n5cc[n+](Cc6ccc7ccccc7c6)c5)[C@@]4(C)CC[C@@H]32)C1`, the IC50 with MCF7 amounted to 2.53 µM; with SW480, 5.64 µM; in the assay on A549 it was 4.74 µM; in the assay with SMMC-7721, 2.45 µM; with HL-60, 1.22 µM.
For `COc1ccc(C(=O)C[n+]2ccn([C@H]3C[C@H]4[C@@H]5CC[C@H]([C@H](C)CCCC(C)C)[C@@]5(C)CC[C@@H]4[C@@]4(C)CC[C@@H]5C[C@]534)c2)cc1`, in that order: 6.54 µM, 7.18 µM, 6.68 µM, 1.1 µM and 1.52 µM.
`COc1ccc(C(=O)C[n+]2ccn([C@H]3CC[C@H]4[C@@H]5CC=C6C[C@@H](O)CC[C@]6(C)[C@H]5CC[C@]34C)c2)cc1`: the IC50 in the assay with MCF7, in the assay on SW480, with A549, in the assay on SMMC-7721 and in the assay with HL-60 was greater than 20 µM each time.
Take `CC(C)CCC[C@@H](C)[C@H]1CC[C@H]2[C@@H]3CC=C4C[C@H](n5c[n+](Cc6ccccc6Br)c6ccccc65)CC[C@]4(C)[C@H]3CC[C@]12C`: the IC50 in the assay on MCF7 was 8.97 µM; in the assay with SW480, 10.6 µM; with A549 it was 7.31 µM; with SMMC-7721, 1.56 µM; in the assay on HL-60, 4.47 µM.
Consider `Cc1cc2c(cc1C)[n+](CC(=O)c1ccccc1)cn2[C@@H]1CC[C@@]2(C)C(=CC[C@H]3[C@@H]4C[C@@H]5O[C@]6(CC[C@@H](C)CO6)[C@@H](C)[C@@H]5[C@@]4(C)CC[C@@H]32)C1`, for which the IC50 in the assay with MCF7 stood at 2.91 µM; in the assay with SW480, 3.22 µM; in the assay on A549, 9.57 µM; in the assay on SMMC-7721, 0.9 µM; in the assay with HL-60, 0.44 µM.
For `C[C@@H]1CC[C@@]2(OC1)O[C@H]1C[C@H]3[C@@H]4CC=C5C[C@H](n6cnc7ccccc76)CC[C@]5(C)[C@H]4CC[C@]3(C)[C@H]1[C@@H]2C`, in that order: greater than 20 µM, greater than 20 µM, greater than 20 µM, greater than 20 µM and greater than 20 µM.
For `COc1ccc(C(=O)C[n+]2ccn([C@@H]3CC[C@@]4(C)C(=CC[C@H]5[C@@H]6C[C@@H]7O[C@]8(CC[C@@H](C)CO8)[C@@H](C)[C@@H]7[C@@]6(C)CC[C@@H]54)C3)c2)cc1`, in that order: 1.47 µM, 2.59 µM, 1.94 µM, 1.51 µM and 1.25 µM.
